Experimental data: ChEMBL document CHEMBL5291721, “A preclinical secondary pharmacology resource illuminates target-adverse drug reaction associations of marketed drugs” (Nat Commun, 2023)

How the values were obtained:
[1] = target: Gamma-aminobutyric acid receptor subunit alpha-1/alpha-2/beta-2/gamma-2 (Homo sapiens, UniProt P14867+P18507+P47869+P47870); format: functional, cell-based
[2] = target: T1, Glucocorticoid receptor (Homo sapiens, UniProt P04150); format: functional
T1 sequence (P04150 whole entry): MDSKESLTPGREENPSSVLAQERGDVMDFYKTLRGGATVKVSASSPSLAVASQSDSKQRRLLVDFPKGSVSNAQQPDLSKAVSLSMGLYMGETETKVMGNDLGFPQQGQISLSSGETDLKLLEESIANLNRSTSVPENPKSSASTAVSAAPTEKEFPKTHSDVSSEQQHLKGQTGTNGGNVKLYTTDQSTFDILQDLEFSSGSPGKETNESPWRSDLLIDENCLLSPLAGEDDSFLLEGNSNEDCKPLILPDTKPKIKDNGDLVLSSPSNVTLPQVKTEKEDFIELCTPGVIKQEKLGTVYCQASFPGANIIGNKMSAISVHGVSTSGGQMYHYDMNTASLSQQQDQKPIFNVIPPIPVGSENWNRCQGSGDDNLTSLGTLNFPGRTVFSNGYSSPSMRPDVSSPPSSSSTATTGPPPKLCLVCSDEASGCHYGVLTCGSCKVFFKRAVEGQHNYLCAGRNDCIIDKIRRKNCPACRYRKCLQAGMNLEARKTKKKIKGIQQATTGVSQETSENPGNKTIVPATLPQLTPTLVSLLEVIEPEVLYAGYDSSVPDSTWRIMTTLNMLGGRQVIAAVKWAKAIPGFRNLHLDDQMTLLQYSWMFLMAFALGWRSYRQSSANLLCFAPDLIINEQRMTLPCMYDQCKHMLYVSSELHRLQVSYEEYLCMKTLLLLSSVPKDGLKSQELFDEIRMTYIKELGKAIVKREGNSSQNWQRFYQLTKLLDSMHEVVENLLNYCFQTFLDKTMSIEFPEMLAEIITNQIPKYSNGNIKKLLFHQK

[3] = target: T1, Glucocorticoid receptor; format: functional; remark: listed apart in the source
[4] = target: T2, Corticotropin-releasing factor receptor 1 (Homo sapiens, UniProt P34998)
T2 sequence (P34998 whole entry): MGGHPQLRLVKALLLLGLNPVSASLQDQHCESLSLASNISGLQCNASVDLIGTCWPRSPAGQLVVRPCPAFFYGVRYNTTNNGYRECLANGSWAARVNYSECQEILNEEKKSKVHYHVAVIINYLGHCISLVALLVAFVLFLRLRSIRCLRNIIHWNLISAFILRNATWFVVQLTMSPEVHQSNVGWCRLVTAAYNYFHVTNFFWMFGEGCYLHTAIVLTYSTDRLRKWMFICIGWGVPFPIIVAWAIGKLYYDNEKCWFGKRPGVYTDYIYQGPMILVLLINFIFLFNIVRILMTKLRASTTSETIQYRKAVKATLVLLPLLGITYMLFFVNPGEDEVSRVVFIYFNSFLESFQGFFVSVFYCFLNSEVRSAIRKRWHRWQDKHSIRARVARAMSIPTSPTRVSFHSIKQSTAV

[5] = target: T3, Gastric inhibitory polypeptide receptor (Homo sapiens, UniProt P48546)
T3 sequence (P48546 whole entry): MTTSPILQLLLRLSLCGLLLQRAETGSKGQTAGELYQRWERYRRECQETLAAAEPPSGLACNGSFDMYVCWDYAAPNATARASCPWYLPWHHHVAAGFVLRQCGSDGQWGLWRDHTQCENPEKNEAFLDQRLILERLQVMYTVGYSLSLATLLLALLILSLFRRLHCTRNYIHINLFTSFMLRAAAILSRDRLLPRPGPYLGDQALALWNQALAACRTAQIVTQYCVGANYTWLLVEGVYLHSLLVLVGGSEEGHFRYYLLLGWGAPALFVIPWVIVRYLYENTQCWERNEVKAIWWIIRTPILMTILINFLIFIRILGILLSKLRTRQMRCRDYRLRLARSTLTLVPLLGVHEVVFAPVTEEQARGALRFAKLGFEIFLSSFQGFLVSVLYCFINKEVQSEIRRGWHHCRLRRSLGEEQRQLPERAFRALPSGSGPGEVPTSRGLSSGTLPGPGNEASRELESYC

[6] = target: T4, Muscarinic acetylcholine receptor M1 (Homo sapiens, UniProt P11229); format: functional, cell-based
T4 sequence (P11229 whole entry): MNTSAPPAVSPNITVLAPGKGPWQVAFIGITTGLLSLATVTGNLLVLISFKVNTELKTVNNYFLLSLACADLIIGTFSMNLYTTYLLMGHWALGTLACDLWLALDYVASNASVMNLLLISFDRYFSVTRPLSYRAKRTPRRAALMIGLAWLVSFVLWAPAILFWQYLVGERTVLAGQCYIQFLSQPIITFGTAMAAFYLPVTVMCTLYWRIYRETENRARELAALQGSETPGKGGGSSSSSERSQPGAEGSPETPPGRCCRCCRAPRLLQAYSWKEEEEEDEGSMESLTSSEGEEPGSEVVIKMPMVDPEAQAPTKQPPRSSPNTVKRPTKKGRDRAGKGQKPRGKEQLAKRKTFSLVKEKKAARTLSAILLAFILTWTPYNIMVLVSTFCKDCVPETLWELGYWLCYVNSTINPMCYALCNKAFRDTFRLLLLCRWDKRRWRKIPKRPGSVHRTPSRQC

[7] = target: T4, Muscarinic acetylcholine receptor M1; format: functional, cell-based; remark: listed apart in the source
[8] = target: Gamma-aminobutyric acid receptor subunit alpha-1 (Rattus norvegicus, UniProt P62813)
Chain of Gamma-aminobutyric acid receptor subunit alpha-1 (P62813 whole entry): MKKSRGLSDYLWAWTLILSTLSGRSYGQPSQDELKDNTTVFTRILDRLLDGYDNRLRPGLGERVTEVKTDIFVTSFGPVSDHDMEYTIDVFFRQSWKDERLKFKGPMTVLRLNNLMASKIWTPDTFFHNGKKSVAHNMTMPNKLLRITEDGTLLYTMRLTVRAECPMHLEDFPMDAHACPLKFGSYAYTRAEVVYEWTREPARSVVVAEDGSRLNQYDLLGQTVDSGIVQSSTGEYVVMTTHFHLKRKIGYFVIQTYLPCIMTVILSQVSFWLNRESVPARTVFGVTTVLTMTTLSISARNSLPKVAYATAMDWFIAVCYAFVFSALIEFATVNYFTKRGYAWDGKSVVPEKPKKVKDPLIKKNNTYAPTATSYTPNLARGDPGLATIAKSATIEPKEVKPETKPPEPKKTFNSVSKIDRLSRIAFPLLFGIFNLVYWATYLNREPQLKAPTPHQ

[9] = target: Sodium channel protein type 5 subunit alpha (Homo sapiens, UniProt Q14524); format: functional, cell-based
Chain of Sodium channel protein type 5 subunit alpha (Q14524 whole entry): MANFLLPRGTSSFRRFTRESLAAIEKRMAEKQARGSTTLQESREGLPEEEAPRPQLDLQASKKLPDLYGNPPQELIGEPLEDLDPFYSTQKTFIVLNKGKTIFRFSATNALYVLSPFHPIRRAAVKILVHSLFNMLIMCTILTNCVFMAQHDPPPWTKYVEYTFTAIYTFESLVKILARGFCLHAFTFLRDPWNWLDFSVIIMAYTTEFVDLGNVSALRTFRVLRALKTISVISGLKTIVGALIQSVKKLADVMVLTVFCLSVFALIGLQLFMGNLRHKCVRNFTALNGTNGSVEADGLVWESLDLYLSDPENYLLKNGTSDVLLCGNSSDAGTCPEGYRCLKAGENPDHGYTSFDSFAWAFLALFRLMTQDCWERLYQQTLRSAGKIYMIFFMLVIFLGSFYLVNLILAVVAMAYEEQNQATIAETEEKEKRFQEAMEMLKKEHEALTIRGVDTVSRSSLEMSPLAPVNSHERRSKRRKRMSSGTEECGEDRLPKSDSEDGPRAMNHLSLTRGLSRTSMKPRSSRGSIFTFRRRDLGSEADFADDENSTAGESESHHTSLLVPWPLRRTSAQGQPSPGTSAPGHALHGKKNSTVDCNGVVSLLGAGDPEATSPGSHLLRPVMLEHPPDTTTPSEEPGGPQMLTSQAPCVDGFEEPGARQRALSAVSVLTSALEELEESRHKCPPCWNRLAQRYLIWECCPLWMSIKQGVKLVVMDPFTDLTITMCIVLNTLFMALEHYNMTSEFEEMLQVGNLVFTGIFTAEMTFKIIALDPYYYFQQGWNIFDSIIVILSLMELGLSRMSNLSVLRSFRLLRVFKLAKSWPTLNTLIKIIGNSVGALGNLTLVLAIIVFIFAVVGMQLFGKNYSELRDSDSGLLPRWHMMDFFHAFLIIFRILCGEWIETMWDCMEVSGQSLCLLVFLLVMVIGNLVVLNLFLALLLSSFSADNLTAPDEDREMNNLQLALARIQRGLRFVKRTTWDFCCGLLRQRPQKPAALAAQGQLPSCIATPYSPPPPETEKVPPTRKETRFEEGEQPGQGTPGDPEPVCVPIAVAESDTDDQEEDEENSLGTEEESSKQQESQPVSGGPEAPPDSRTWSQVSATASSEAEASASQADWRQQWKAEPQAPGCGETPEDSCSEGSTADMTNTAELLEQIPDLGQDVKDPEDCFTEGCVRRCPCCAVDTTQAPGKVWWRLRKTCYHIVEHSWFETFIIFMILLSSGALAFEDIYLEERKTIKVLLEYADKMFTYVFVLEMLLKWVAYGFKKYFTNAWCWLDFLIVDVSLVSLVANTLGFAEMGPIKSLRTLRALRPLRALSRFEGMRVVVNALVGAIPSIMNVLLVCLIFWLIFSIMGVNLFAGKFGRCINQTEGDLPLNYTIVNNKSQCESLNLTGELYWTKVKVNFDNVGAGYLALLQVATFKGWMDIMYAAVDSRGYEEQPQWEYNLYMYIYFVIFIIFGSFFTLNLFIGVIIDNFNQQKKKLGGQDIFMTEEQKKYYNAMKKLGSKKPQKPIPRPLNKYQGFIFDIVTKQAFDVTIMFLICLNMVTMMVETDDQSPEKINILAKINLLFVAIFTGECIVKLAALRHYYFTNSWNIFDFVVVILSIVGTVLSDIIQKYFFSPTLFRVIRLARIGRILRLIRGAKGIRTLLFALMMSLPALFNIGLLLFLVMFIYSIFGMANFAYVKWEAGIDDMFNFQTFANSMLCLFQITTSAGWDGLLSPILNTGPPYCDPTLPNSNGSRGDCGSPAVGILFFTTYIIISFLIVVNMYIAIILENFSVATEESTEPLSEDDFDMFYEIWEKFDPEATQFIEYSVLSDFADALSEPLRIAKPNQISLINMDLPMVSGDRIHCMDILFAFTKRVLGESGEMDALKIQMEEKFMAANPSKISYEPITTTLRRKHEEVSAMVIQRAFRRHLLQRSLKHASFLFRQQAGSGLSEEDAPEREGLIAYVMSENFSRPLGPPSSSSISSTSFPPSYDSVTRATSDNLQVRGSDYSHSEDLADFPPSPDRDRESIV

[10] = target: Synaptic vesicular amine transporter (Rattus norvegicus, UniProt Q01827); format: functional
Chain of Synaptic vesicular amine transporter (Q01827 whole entry): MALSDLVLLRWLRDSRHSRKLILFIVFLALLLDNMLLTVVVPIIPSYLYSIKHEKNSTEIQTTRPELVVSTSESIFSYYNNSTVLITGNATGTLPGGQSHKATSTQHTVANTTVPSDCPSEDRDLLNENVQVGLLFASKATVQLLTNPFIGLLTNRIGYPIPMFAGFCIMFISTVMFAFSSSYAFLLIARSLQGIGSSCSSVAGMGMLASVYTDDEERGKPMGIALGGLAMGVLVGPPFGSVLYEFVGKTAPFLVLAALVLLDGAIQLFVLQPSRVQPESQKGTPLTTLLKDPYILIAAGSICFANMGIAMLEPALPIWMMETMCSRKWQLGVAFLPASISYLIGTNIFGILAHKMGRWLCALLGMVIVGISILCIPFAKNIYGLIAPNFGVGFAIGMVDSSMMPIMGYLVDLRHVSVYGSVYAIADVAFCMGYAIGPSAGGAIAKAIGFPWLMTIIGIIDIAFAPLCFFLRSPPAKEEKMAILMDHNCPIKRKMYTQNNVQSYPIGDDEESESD
Note: assay procedure not described here.

Chain of Gamma-aminobutyric acid receptor subunit alpha-1/alpha-2/beta-2/gamma-2 (P14867 whole entry): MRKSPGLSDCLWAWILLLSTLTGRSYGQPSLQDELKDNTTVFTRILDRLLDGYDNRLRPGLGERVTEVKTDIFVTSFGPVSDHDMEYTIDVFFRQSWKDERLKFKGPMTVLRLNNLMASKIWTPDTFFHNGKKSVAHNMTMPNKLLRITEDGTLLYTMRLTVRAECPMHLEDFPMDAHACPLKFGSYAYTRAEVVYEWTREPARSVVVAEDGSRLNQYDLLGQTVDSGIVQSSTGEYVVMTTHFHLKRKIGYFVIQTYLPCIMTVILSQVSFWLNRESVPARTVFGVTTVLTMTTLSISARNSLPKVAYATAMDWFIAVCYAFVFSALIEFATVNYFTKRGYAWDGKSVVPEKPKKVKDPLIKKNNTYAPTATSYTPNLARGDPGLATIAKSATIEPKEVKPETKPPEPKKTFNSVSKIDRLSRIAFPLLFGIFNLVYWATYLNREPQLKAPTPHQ
Chain of Gamma-aminobutyric acid receptor subunit alpha-1/alpha-2/beta-2/gamma-2 (P47870 whole entry): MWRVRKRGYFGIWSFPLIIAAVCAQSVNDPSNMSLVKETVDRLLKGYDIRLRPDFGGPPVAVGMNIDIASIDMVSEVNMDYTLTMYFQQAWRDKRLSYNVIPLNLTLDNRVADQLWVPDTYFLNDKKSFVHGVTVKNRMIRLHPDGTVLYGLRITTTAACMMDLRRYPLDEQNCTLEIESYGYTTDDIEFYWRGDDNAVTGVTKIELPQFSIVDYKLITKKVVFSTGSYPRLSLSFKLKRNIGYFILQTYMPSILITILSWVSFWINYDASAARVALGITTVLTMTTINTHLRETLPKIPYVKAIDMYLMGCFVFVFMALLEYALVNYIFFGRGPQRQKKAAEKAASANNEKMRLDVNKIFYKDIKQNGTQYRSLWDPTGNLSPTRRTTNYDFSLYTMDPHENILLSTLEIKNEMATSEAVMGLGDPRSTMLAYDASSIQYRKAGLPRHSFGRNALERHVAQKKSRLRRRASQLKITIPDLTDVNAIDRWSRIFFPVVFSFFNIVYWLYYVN
Chain of Gamma-aminobutyric acid receptor subunit alpha-1/alpha-2/beta-2/gamma-2 (P18507 whole entry): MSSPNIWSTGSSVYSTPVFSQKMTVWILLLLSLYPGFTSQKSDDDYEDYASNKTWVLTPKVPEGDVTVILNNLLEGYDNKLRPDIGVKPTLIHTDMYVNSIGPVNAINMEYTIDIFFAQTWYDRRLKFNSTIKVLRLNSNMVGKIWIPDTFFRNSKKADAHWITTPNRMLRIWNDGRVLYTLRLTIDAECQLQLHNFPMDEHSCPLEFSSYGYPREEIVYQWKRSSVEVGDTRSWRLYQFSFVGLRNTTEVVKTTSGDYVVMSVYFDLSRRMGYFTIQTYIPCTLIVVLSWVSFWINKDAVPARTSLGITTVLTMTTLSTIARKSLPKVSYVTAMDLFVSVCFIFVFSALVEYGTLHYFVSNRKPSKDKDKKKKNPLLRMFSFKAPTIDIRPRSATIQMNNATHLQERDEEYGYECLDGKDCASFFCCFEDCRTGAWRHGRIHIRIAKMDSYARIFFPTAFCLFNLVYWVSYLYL
Chain of Gamma-aminobutyric acid receptor subunit alpha-1/alpha-2/beta-2/gamma-2 (P47869 whole entry): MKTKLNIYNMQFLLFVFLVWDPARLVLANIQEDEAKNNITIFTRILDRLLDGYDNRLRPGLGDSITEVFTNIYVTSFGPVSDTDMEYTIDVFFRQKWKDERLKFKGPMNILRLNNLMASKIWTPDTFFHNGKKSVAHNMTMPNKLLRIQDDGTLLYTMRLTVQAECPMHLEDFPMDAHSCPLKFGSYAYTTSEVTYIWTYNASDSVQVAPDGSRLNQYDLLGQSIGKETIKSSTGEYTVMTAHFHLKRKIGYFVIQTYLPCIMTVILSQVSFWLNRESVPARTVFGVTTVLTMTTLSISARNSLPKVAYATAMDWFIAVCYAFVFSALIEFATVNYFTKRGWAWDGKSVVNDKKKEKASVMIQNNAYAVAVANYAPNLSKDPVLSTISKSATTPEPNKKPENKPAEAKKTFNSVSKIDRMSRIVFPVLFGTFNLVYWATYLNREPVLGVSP

| Structure (SMILES) | AC50 [1] | AC50 [2] | AC50 [3] | AC50 [4] | AC50 [5] | AC50 [6] | AC50 [7] | AC50 [8] | AC50 [9] | AC50 [10] |
| --- | --- | --- | --- | --- | --- | --- | --- | --- | --- | --- |
| CO/N=C(\C(=O)N[C@@H]1C(=O)N2C(C(=O)[O-])=C(C[N+]3(C)CCCC3)CS[C@H]12)c1csc(N)n1 | > 2400 µM | > 300 µM | > 300 µM |  |  |  |  |  |  |  |
| CC(=O)c1ccc2c(c1)N(CCCN1CCN(CCO)CC1)c1ccccc1S2 [ACETOPHENAZINE] | > 30 µM | > 30 µM | > 30 µM |  |  |  |  |  |  |  |
| CC(N)Cc1ccccc1 (stereo not drawn) [AMPHETAMINE] | > 30 µM | > 30 µM | > 30 µM | > 30 µM | > 30 µM |  |  |  |  |  |
| CN1CCCC(n2nc(Cc3ccc(Cl)cc3)c3ccccc3c2=O)CC1 (stereo not drawn) [AZELASTINE] | > 30 µM | > 30 µM | > 30 µM |  |  |  |  |  |  |  |
| O=C1c2c(O)c(=O)ccn2N([C@@H]2c3ccccc3SCc3c2ccc(F)c3F)[C@@H]2COCCN12 [BALOXAVIR] |  |  |  |  |  | > 30 µM | > 30 µM | > 30 µM | > 50 µM | 22 µM |
| C#C[C@]1(O)CC[C@H]2[C@@H]3CCc4cc(O)ccc4[C@H]3CC[C@@]21C [ETHINYL ESTRADIOL] |  | > 30 µM | > 30 µM | > 30 µM | > 30 µM |  |  | > 30 µM | > 30 µM |  |
| COc1ccc2c(c1)C(=O)N(CCc1ccc(S(=O)(=O)NC(=O)NC3CCCCC3)cc1)C(=O)C2(C)C [GLIQUIDONE] |  | > 30 µM | 8.9 µM |  |  |  |  |  |  |  |
| CC(C)Cc1ccc(CC(=O)O)cc1 [IBUFENAC] | > 30 µM | > 30 µM | > 30 µM |  |  |  |  |  |  |  |
| CC(C)NNC(=O)c1ccncc1 [IPRONIAZID] | > 30 µM | > 30 µM | > 30 µM |  |  |  |  |  |  |  |
| CC[C@H](C)C(=O)O[C@H]1C[C@H](O)C=C2C=C[C@H](C)[C@H](CC[C@@H](O)C[C@@H](O)CC(=O)O)[C@H]21 [PRAVASTATIN] | > 30 µM | > 30 µM | > 30 µM |  |  |  |  |  |  |  |
| O=C(NC[C@H]1CN(c2ccc(N3CCOCC3=O)cc2)C(=O)O1)c1ccc(Cl)s1 [RIVAROXABAN] | > 30 µM | > 30 µM | > 30 µM |  |  | > 30 µM | > 3 µM | > 30 µM | > 50 µM |  |
| Cc1ccc(C(=O)c2cc(O)c(O)c([N+](=O)[O-])c2)cc1 [TOLCAPONE] |  | 14 µM | > 30 µM |  |  |  |  |  |  |  |
| OCc1cc([C@@H](O)CNCCCCCCOCCOCc2c(Cl)cccc2Cl)ccc1O [VILANTEROL] | > 30 µM | > 30 µM | > 30 µM |  |  |  |  |  | 5 µM |  |
| CCOC(=O)N[C@@H]1CC[C@@H]2[C@@H](C1)C[C@H]1C(=O)O[C@H](C)[C@H]1[C@H]2/C=C/c1ccc(-c2cccc(F)c2)cn1 [VORAPAXAR] |  |  |  |  |  | > 30 µM | 26.3 µM |  | > 50 µM | 1.3 µM |
